Measurements reported in ChEMBL document CHEMBL1201862, “PubChem BioAssay data set” (2004).
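96-well plates; 48 h exposure; 5 concentrations. Endpoints by linear interpolation between flanking doses. Not reached: highest tested concentration assigned. Abbreviation: GI50, concentration required for 50% inhibition of growth.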 Active and inactive are the calls of the source. No stated cut-off is given here; in the data, active = GI50 up to about 1.1 µM and inactive = higher. Where a SMILES comes first, the peptide text is derived from it. The star is where a group is joined. X33 = O=C(c1ccc(-c2ccc(Cl)cc2Cl)o1)*

How the values were obtained:
Experiment in all cases: NCI tumour cell line growth inhibition, 48 h
786-0 = test system: 786-0
CAKI-1 = test system: CAKI-1
COLO 205 = test system: COLO 205
DU-145 = test system: DU-145
HCC 2998 = test system: HCC 2998
HCT-15 = test system: HCT-15
HL-60 = test system: HL-60
IGROV-1 = test system: IGROV-1
KM12 = test system: KM12
M14 = test system: M14
MDA-MB-435 = test system: MDA-MB-435
MOLT-4 = test system: MOLT-4
NCI-H460 = test system: NCI-H460
NCI-H522 = test system: NCI-H522
OVCAR-5 = test system: OVCAR-5
RXF 393 = test system: RXF 393
SK-MEL-2 = test system: SK-MEL-2
SN12C = test system: SN12C
SNB-19 = test system: SNB-19
SW-620 = test system: SW-620

SMILES	GI50 (786-0)	GI50 (CAKI-1)	GI50 (COLO 205)	GI50 (DU-145)	GI50 (HCC 2998)	GI50 (HCT-15) [µM]	GI50 (HL-60)	GI50 (IGROV-1)	GI50 (KM12)	GI50 (M14)	GI50 (MDA-MB-435)	GI50 (MOLT-4)	GI50 (NCI-H460)	GI50 (NCI-H522)	GI50 (OVCAR-5)	GI50 (RXF 393)	GI50 (SK-MEL-2)	GI50 (SN12C)	GI50 (SNB-19)	GI50 (SW-620)
CCC1CCC2c3c([nH]c4ccc(C)cc34)C3C(=O)N(N(C)C)C(=O)C3C2C1 (stereo not given)	7.24 µM (inactive)	> 34.4 µM (inactive)	4.36 µM (inactive)	29.9 µM (inactive)	35.2 µM (inactive)	5.78	3.05 µM (inactive)	5.11 µM (inactive)	6.52 µM (inactive)	14.5 µM (inactive)	1.37 µM (inactive)	14.5 µM (inactive)	7.45 µM (inactive)	0.748 µM (active)	> 86.5 µM (inactive)	8.05 µM (inactive)	24.6 µM (inactive)	17.9 µM (inactive)	16.9 µM (inactive)	13.8 µM (inactive)
COc1ccc(NC(C)=O)cc1N1C(=O)/C(=C\c2cccc(Oc3ccccc3)c2)SC1c1ccccc1 (stereo not given)	24.3 µM (inactive)	28.4 µM (inactive)	19.4 µM (inactive)	35.3 µM (inactive)	36.1 µM (inactive)	33.1	16.9 µM (inactive)	27.4 µM (inactive)	37.6 µM (inactive)	34.1 µM (inactive)	23.3 µM (inactive)	10.1 µM (inactive)	36.4 µM (inactive)	28.4 µM (inactive)	29.3 µM (inactive)	39.7 µM (inactive)	30.5 µM (inactive)	20.4 µM (inactive)	69.3 µM (inactive)	21.6 µM (inactive)
N#Cc1nc(-c2ccccc2C(=O)O)oc1N	> 100 µM (inactive)	> 100 µM (inactive)	> 100 µM (inactive)	> 100 µM (inactive)	> 100 µM (inactive)	> 100	> 100 µM (inactive)	> 100 µM (inactive)	> 100 µM (inactive)	> 100 µM (inactive)	> 100 µM (inactive)	> 100 µM (inactive)	> 100 µM (inactive)	> 100 µM (inactive)	> 100 µM (inactive)	> 100 µM (inactive)	> 100 µM (inactive)	> 100 µM (inactive)	> 100 µM (inactive)	> 100 µM (inactive)
CC1=C(C(=O)OC(C)C)C(c2cccc([N+](=O)[O-])c2)C(C(=O)OC(CO[N+](=O)[O-])CO[N+](=O)[O-])=C(C)N1 (stereo not given)	3.56 µM (inactive)	3.99 µM (inactive)	2.93 µM (inactive)	11.4 µM (inactive)	4.53 µM (inactive)	2.86	2 µM (inactive)	4.75 µM (inactive)	3.3 µM (inactive)	3.56 µM (inactive)	3.15 µM (inactive)	1.85 µM (inactive)	3.5 µM (inactive)	1.85 µM (inactive)	6.71 µM (inactive)	7.52 µM (inactive)	2.39 µM (inactive)	3.97 µM (inactive)	2.99 µM (inactive)	4.14 µM (inactive)
CCN(CC)CCSc1c2cc(OC)ccc2nc2ccc(OC)cc12	1.85 µM (inactive)	7.53 µM (inactive)	1.98 µM (inactive)	2.05 µM (inactive)	13.5 µM (inactive)	2.86	5.3 µM (inactive)	1.95 µM (inactive)	5.09 µM (inactive)	6.73 µM (inactive)	7.03 µM (inactive)	2.29 µM (inactive)	9.75 µM (inactive)	1.59 µM (inactive)	15.8 µM (inactive)	7.38 µM (inactive)	17 µM (inactive)	3.03 µM (inactive)	12.1 µM (inactive)	2.56 µM (inactive)
CN(C)c1ccc(C=C2C(=O)NC(=S)NC2=O)c2ccccc12	39.8 µM (inactive)	98.9 µM (inactive)	> 100 µM (inactive)	> 100 µM (inactive)	> 100 µM (inactive)	41.7	33.7 µM (inactive)	36.1 µM (inactive)	> 100 µM (inactive)	> 100 µM (inactive)	38.9 µM (inactive)	29.6 µM (inactive)	> 100 µM (inactive)	18.5 µM (inactive)	> 100 µM (inactive)	26.3 µM (inactive)	62.8 µM (inactive)	68.4 µM (inactive)	61.2 µM (inactive)	46.6 µM (inactive)
COC(=O)CCCC(=O)/C(=N\Nc1ccc(Cl)cc1)Nc1c(Cl)cccc1Cl	86.1 µM (inactive)	> 100 µM (inactive)	22.7 µM (inactive)	52.4 µM (inactive)	58.7 µM (inactive)	72.3	7.06 µM (inactive)	> 81.7 µM (inactive)	32 µM (inactive)	> 92.5 µM (inactive)	76.7 µM (inactive)	26 µM (inactive)	26.7 µM (inactive)	28.4 µM (inactive)	> 100 µM (inactive)	8.69 µM (inactive)	24.6 µM (inactive)	> 100 µM (inactive)	35.7 µM (inactive)	> 100 µM (inactive)
N#CCc1nc(-c2cc3ccccc3oc2=O)cs1	> 100 µM (inactive)	> 100 µM (inactive)	67.3 µM (inactive)	> 100 µM (inactive)	> 100 µM (inactive)	35.8	17.5 µM (inactive)	40.6 µM (inactive)	26.7 µM (inactive)	35.6 µM (inactive)	44.6 µM (inactive)	16.6 µM (inactive)	75.2 µM (inactive)	15.9 µM (inactive)	> 100 µM (inactive)	> 100 µM (inactive)	25.4 µM (inactive)	> 100 µM (inactive)	> 100 µM (inactive)	> 100 µM (inactive)
c1ccc(C/C(=N\Nc2nc3ccccc3o2)c2ccccn2)cc1	< 0.0193 µM (active)	0.0879 µM (active)	< 0.01 µM (active)	0.376 µM (active)	< 0.0163 µM (active)	0.0252	0.0698 µM (active)	0.0643 µM (active)	0.264 µM (active)	0.0382 µM (active)	0.638 µM (active)	< 0.01 µM (active)	0.0931 µM (active)	0.191 µM (active)	< 0.01 µM (active)	0.0851 µM (active)	0.929 µM (active)	0.0569 µM (active)	0.2 µM (active)	< 0.013 µM (active)
CCC(C)C(NC(=O)CNC(=O)C(Cc1ccccc1)NC(=O)C1CCCN1C(=O)c1ccc(-c2ccc(Cl)cc2Cl)o1)C(=O)OC (stereo not given) (X33-PFGI-OMe; configuration not given here)	27.1 µM (inactive)	31 µM (inactive)	31.6 µM (inactive)	39.5 µM (inactive)	21.3 µM (inactive)	43.1	3.47 µM (inactive)	19.6 µM (inactive)	37.5 µM (inactive)	46.8 µM (inactive)	38.9 µM (inactive)	10.6 µM (inactive)	15.7 µM (inactive)	29.8 µM (inactive)	74.8 µM (inactive)	19.4 µM (inactive)	60.5 µM (inactive)	19.8 µM (inactive)	48.1 µM (inactive)	23 µM (inactive)
O=C1c2c(ccc3c2CCC3)CC12Cc1cc3c(cc1C2)CCC3	> 100 µM (inactive)	> 100 µM (inactive)	> 100 µM (inactive)	> 100 µM (inactive)	> 100 µM (inactive)	> 100	> 100 µM (inactive)	> 100 µM (inactive)	> 100 µM (inactive)	> 100 µM (inactive)	> 100 µM (inactive)	> 100 µM (inactive)	> 100 µM (inactive)	> 100 µM (inactive)	> 100 µM (inactive)	> 100 µM (inactive)	> 100 µM (inactive)	> 100 µM (inactive)	> 100 µM (inactive)	> 100 µM (inactive)
OC1C2CCCCN2C[C@@H](O)[C@H]1O (stereo not given in full)	> 100 µM (inactive)	> 100 µM (inactive)	> 100 µM (inactive)	> 100 µM (inactive)	> 100 µM (inactive)	> 100	> 100 µM (inactive)	> 100 µM (inactive)	> 100 µM (inactive)	> 100 µM (inactive)	> 100 µM (inactive)	> 100 µM (inactive)	> 100 µM (inactive)	76.6 µM (inactive)	> 100 µM (inactive)	> 100 µM (inactive)	> 100 µM (inactive)	> 100 µM (inactive)	> 100 µM (inactive)	> 100 µM (inactive)
CCOC(=O)C1=C(C)C(C(=O)OC)/C(=C/c2cccc3cccnc23)C1=O (stereo not given)	> 10 µM (inactive)	> 10 µM (inactive)	> 10 µM (inactive)	> 10 µM (inactive)	> 10 µM (inactive)	> 10	9.82 µM (inactive)	> 10 µM (inactive)	> 10 µM (inactive)	> 10 µM (inactive)	> 10 µM (inactive)	> 10 µM (inactive)	> 10 µM (inactive)	> 10 µM (inactive)	> 10 µM (inactive)	> 10 µM (inactive)	> 10 µM (inactive)	> 10 µM (inactive)	> 10 µM (inactive)	> 10 µM (inactive)
C/C(=N\Nc1nc2cc(C)ccc2s1)c1ccccn1	0.519 µM (active)	0.0562 µM (active)	0.0518 µM (active)	0.652 µM (active)	1.29 µM (inactive)	0.272	0.158 µM (active)	0.199 µM (active)	0.794 µM (active)	0.417 µM (active)	0.982 µM (active)	< 0.0246 µM (active)	0.69 µM (active)	0.148 µM (active)	0.661 µM (active)	3.63 µM (inactive)	0.4 µM (active)	0.401 µM (active)	1.38 µM (inactive)	0.209 µM (active)
